“And” between values parts separate entries of the source, which are not always exact repeats. Equal values may be shown once. Read-outs that look alike come from different tables or passages of the source.
Assays:
recombinant human AChE [1] = target: T1, recombinant human AChE (Homo sapiens, UniProt P22303); assay: biochemical; type: biochemical; details: for Emax: read-out: efficacy (%), Colorimetric
recombinant human AChE [2] = target: T1, recombinant human AChE; assay: biochemical; type: biochemical; details: for Emax: read-out: efficacy (%), Fluorescence
recombinant human AChE [3] = target: T1, recombinant human AChE; type: biochemical
recombinant human AChE [4] = target: T1, recombinant human AChE; assay: biochemical
recombinant human AChE [5] = target: T1, recombinant human AChE; assay: biochemical; type: biochemical; details: for Emax: read-out: efficacy (%), Colorimetric, +Rat MS
recombinant human AChE [6] = target: T1, recombinant human AChE; assay: biochemical; type: biochemical; details: for Emax: read-out: efficacy (%), Fluorescence, +Rat MS
AChE = details: following exposure; ref International Programme on Chemical Safety, 1989; cited from earlier work
cholinesterase = details: following exposure; rats, mice, birds, fish, and farm animals; ref International Programme on Chemical Safety, 1989; cited from earlier work
[7] = IC50 (μM), Colorimetric, +Human MS

T1 sequence (P22303 32-614): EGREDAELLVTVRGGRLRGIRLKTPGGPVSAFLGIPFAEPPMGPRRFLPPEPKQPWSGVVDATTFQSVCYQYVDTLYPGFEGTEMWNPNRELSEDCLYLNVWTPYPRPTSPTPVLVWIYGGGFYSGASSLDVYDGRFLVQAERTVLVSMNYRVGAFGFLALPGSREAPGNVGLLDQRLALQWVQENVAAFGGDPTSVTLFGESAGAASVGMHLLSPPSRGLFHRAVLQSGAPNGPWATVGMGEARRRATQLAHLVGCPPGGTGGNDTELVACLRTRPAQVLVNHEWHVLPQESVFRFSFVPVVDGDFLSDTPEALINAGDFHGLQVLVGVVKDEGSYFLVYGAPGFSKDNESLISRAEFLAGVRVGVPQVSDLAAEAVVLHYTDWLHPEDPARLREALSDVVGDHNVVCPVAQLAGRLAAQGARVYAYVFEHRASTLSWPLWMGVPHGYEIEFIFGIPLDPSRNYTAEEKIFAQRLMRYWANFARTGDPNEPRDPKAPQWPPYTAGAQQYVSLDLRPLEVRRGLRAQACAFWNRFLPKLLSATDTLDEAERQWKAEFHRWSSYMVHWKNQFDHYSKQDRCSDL

COP(=O)(OC)OC(Br)C(Cl)(Cl)Br (stereo not shown) [Naled]
IC50 (recombinant human AChE [1]): 61.3 µM
Emax (recombinant human AChE [1]): 46.5%
IC50 (μM), Fluorescence (recombinant human AChE [2]): Inactive

CCCCSP(=O)(SCCCC)SCCCC [Tribufos]
IC50 (μM), Colorimetric (recombinant human AChE [1]): Inactive
Emax (recombinant human AChE [2]): 60.8%

CCOP(=S)(OCC)OC(Cl)C(Cl)(Cl)Cl (stereo not shown) [Chlorethoxyfos]
efficacy (%), Fluorescence, +Human MS (recombinant human AChE [3]): 31.57±8.80 (−99.07±7.79) %
efficacy (%), Colorimetric, +Human MS (recombinant human AChE [4]): 10.88±0.00 (−102.91±1.64) %
IC50 (recombinant human AChE [4]; [7]): 10.9 µM
Emax (recombinant human AChE [5]): 105%
Emax (recombinant human AChE [1]): 46.3%
Emax (recombinant human AChE [2]): 99.2%
Emax (recombinant human AChE [6]): 100%

CCN(CC)c1nc(C)cc(OP(=S)(OC)OC)n1 [Pirimiphos-methyl]
IC50 (μM), Fluorescence, +Human MS (recombinant human AChE [3]): Inactive
IC50 (μM), Colorimetric, +Human MS (recombinant human AChE [4]): Inactive
IC50 (μM), Colorimetric, +Rat MS (recombinant human AChE [5]): Inactive
IC50 (μM), Colorimetric (recombinant human AChE [1]): Inactive
IC50 (μM), Fluorescence (recombinant human AChE [2]): Inactive
IC50 (recombinant human AChE [6]): 41.7 µM
Emax (recombinant human AChE [6]): 42%

CNC(=O)CSP(=O)(OC)OC [Omethoate]
IC50 (μM), Colorimetric (recombinant human AChE [1]): Inactive
IC50 (recombinant human AChE [2]): 68.9 µM
Emax (recombinant human AChE [2]): 46.3%

CCOP(=O)(SC(C)CC)N1CCSC1=O (stereo not shown) [Fosthiazate]
IC50 (μM), Colorimetric (recombinant human AChE [1]): Inactive
inhibitory effect on AChE activity (in words) (recombinant human AChE [1]): did not show inhibition effects
IC50 (μM), Fluorescence (recombinant human AChE [2]): Inactive
inhibitory effect on AChE activity (in words) (recombinant human AChE [2]): did not show inhibition effects

CCOP(=S)(OCC)SCSC(C)(C)C [Terbufos]
IC50 (μM), Fluorescence, +Human MS (recombinant human AChE [3]): Inactive
efficacy (%), Colorimetric, +Human MS (recombinant human AChE [4]): 31.74±5.73 (−57.67±2.16) %
IC50 (recombinant human AChE [4]; [7]): 31.7 µM
Emax (recombinant human AChE [5]): 95.7%
IC50 (μM), Colorimetric (recombinant human AChE [1]): Inactive
IC50 (μM), Fluorescence (recombinant human AChE [2]): Inactive
Emax (recombinant human AChE [6]): 85.3%

COP(=O)(OC)OC=C(Cl)Cl [Dichlorvos]
Emax (recombinant human AChE [1]): 34.9%
Emax (recombinant human AChE [2]): 76.8%

CCOC(=O)CC(SP(=O)(OC)OC)C(=O)OCC (stereo not shown) [Malaoxon]
Emax (recombinant human AChE [1]): 91.1%
Emax (recombinant human AChE [2]): 95.2%

COP(=O)(OC)C(O)C(Cl)(Cl)Cl (stereo not shown) [Trichlorfon]
Emax (recombinant human AChE [1]): 30%
Emax (recombinant human AChE [2]): 91.5%

CCOP(=S)(Oc1cnc(C(C)(C)C)nc1)OC(C)C (stereo not shown) [Tebupirimfos]
efficacy (%), Fluorescence, +Human MS (recombinant human AChE [3]): 48.81±5.61 (−70.67±3.28) %
efficacy (%), Colorimetric, +Human MS (recombinant human AChE [4]): 14.39±2.31 (−95.21±2.02) %
IC50 (recombinant human AChE [4]; [7]): 14.4 µM
Emax (recombinant human AChE [5]): 100%
Emax (recombinant human AChE [1]): 53%
Emax (recombinant human AChE [2]): 90.4%
Emax (recombinant human AChE [6]): 91%

CCCSP(=O)(OCC)SCCC [Ethoprop]
Emax (recombinant human AChE [1]): 43.4%

COP(N)(=O)SC (stereo not shown) [Methamidophos]
Emax (recombinant human AChE [1]): 38.7%
Emax (recombinant human AChE [2]): 103%

CCOC(=O)CC(SP(=S)(OC)OC)C(=O)OCC (stereo not shown) [Malathion]
IC50 (μM), Fluorescence, +Human MS (recombinant human AChE [3]): Inactive
IC50 (μM), Colorimetric, +Human MS (recombinant human AChE [4]): Inactive
Emax (recombinant human AChE [5]): 59.4%
IC50 (μM), Colorimetric (recombinant human AChE [1]): Inactive
Emax (recombinant human AChE [2]): 77%
IC50 (μM), Fluorescence, +Rat MS (recombinant human AChE [6]): Inactive

CCOP(=S)(OCC)Oc1ccc2c(C)c(Cl)c(=O)oc2c1 [Coumaphos]
efficacy (%), Fluorescence, +Human MS (recombinant human AChE [3]): 12.95±1.05 (−67.18±4.87) %
efficacy (%), Colorimetric, +Human MS (recombinant human AChE [4]): 8.06±1.94 (−98.15±5.15) %
IC50 (recombinant human AChE [4]; [7]): 8.06 µM
Emax (recombinant human AChE [5]): 96.5%
IC50 (μM), Colorimetric (recombinant human AChE [1]): Inactive
Emax (recombinant human AChE [2]): 83.3%
Emax (recombinant human AChE [6]): 95%

COP(=O)(OC)O/C(=C\Cl)c1cc(Cl)c(Cl)cc1Cl [Z-Tetrachlorvinphos]
IC50 (μM), Colorimetric (recombinant human AChE [1]): Inactive
Emax (recombinant human AChE [2]): 75.7%

CCOP(=S)(OCC)SCSCC [Phorate]
IC50 (μM), Fluorescence, +Human MS (recombinant human AChE [3]): Inactive
IC50 (μM), Colorimetric, +Human MS (recombinant human AChE [4]): Inactive
inhibitory effect on AChE activity (in words) (recombinant human AChE [4]): did not show inhibitory effects
Emax (recombinant human AChE [5]): 96.3%
IC50 (μM), Colorimetric (recombinant human AChE [1]): Inactive
Emax (recombinant human AChE [2]): 44.4%
Emax (recombinant human AChE [6]): 72%

COP(=O)(NC(C)=O)SC (stereo not shown) [Acephat]
IC50 (μM), Colorimetric (recombinant human AChE [1]): Inactive
IC50 (μM), Fluorescence (recombinant human AChE [2]): Inactive

CCOP(=O)(OCC)Oc1cc(C)nc(C(C)C)n1 [Diazoxon]
IC50 (recombinant human AChE [1]): 1.33 µM
Emax (recombinant human AChE [1]): 95.2%
Emax (recombinant human AChE [2]): 77.7%

COP(=S)(OC)SCN1C(=O)c2ccccc2C1=O [Phosmet]
IC50 (μM), Fluorescence, +Human MS (recombinant human AChE [3]): Inactive
IC50 (μM), Colorimetric, +Human MS (recombinant human AChE [4]): Inactive
IC50 (μM), Colorimetric, +Rat MS (recombinant human AChE [5]): Inactive
IC50 (μM), Colorimetric (recombinant human AChE [1]): Inactive
Emax (recombinant human AChE [2]): 65.3%
Emax (recombinant human AChE [6]): 43.5%

CCCSP(=O)(OCC)Oc1ccc(Br)cc1Cl (stereo not shown) [Profenofos]
Emax (recombinant human AChE [1]): 83.2%
Emax (recombinant human AChE [2]): 93.7%

CCOP(=S)(OCC)Oc1nc(Cl)c(Cl)cc1Cl [Chlorpyrifos]
efficacy (%), Fluorescence, +Human MS (recombinant human AChE [3]): 1.22±0.00 (−102.89±2.97) %
efficacy (%), Colorimetric, +Human MS (recombinant human AChE [4]): 1.71±0.47 (−93.65±1.00) %
inhibition of AChE activity (recombinant human AChE [4]): did not inhibit AChE activity
IC50 (recombinant human AChE [4]; [7]): 1.71 µM
IC50 (recombinant human AChE [4]; IC50, inhibition of AChE): 1.31 µM and 0.78 µM and 0.8 µM
Emax (recombinant human AChE [5]): 98.8%
IC50 (μM), Colorimetric (recombinant human AChE [1]): Inactive
Emax (recombinant human AChE [2]): 100%
Emax (recombinant human AChE [6]): 89.8%

CCOP(=S)(OCC)Oc1cc(C)nc(C(C)C)n1 [Diazinon]
efficacy (%), Fluorescence, +Human MS (recombinant human AChE [3]): 113.22±7.66 (−71.22±6.26) %
IC50 (μM), Colorimetric, +Human MS (recombinant human AChE [4]): Inactive
Emax (recombinant human AChE [5]): 73.1%
Emax (recombinant human AChE [1]): 102%
Emax (recombinant human AChE [2]): 96.3%
IC50 (μM), Fluorescence, +Rat MS (recombinant human AChE [6]): Inactive

CNC(=O)CSP(=S)(OC)OC [Dimethoate]
AChE inhibition in human volunteers (AChE): no AChE inhibition was observed
IC50 (μM), Fluorescence, +Human MS (recombinant human AChE [3]): Inactive
IC50 (μM), Colorimetric, +Human MS (recombinant human AChE [4]): Inactive
IC50 (μM), Colorimetric, +Rat MS (recombinant human AChE [5]): Inactive
IC50 (μM), Colorimetric (recombinant human AChE [1]): Inactive
IC50 (μM), Fluorescence (recombinant human AChE [2]): Inactive
cholinesterase activity in animals (cholinesterase): cholinesterase activity was inhibited
IC50 (μM), Fluorescence, +Rat MS (recombinant human AChE [6]): Inactive

COP(=O)(OC)O/C(C)=C/C(=O)N(C)C [Dicrotophos]
Emax (recombinant human AChE [1]): 32.5%
Emax (recombinant human AChE [2]): 82.7%

From PMC6713233 (Toxicology in vitro : an international journal published in …, 2019)
